This is an account of results in patent US11242344B2, “(4-hydroxypyrrolidin-2-yl)-heterocyclic compounds and methods of use thereof” (Genentech, Inc., priority 2017, dated 2022).

In assay [1] the target is VHL co-expressed with Elongins B and C (Homo sapiens (Human), UniProt P40337). In words: Surface Plasmon Resonance Assay. Type of assay: binding. The settings on record: SPR measured VHL affinity; geometric mean where more than one measurement. The method in brief:
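Binding kinetics by SPR at 20 °C: compound concentration series run from low to high at 80 μL/min over VHL–Elongin B/C complex, immobilized via avidin tag on SA chip. Buffer was HEPES pH 7.2 with 150 mM NaCl, TCEP, Tween 20, PEG3350 and 2% DMSO; association/dissociation times adjusted per compound.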
(Surface plasmon resonance follows binding to a sensor surface in real time, without labels.)

Another assay concerns the target VHL Elongin B/C complex (Homo sapiens (Human), UniProt P40337). The assay is described as follows: Fluorescence Polarization (FP) VHL Binding Assay. The settings on record: VHL binding, FP assay; geometric mean where more than one measurement. The method in brief: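 Readout is polarization of a TAMRA-coupled VHL ligand (1.67 nM final) displaced from the VHL(E55-D213)/Elongin B/C complex (2.64 nM final) after 1 h incubation at room temperature in pH 8.0 Tris buffer with 1% DMSO. Data normalized to no-VHL and compound-free controls, with compound fluorescence subtracted, and fitted by four-parameter curve for IC50.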
Background: In fluorescence polarisation assays a small probe gives low polarisation when free and higher when bound to something large.

The target of assay [2] is NanoLuc VHL fusion protein (Homo sapiens (Human), UniProt P40337). In words: VHL HEK-293 BRET Assay (NanoBRET Target Engagement). Type of assay: cell-based. The settings on record: geometric mean where more than one measurement. The procedure, abridged: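 HEK293 cells stably expressing NanoLuc-VHL, 2 h with compound titration and 1 uM final tracer, then Nano-Glo substrate plus extracellular NanoLuc inhibitor. BRET ratio 610/460 nm, background-corrected with no-tracer wells, normalised to DMSO and 10 uM unlabeled VHL antagonist controls; IC50 by four-parameter fit.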
Chain of NanoLuc VHL fusion protein (P40337 whole entry, looked up, the tested form may be a part): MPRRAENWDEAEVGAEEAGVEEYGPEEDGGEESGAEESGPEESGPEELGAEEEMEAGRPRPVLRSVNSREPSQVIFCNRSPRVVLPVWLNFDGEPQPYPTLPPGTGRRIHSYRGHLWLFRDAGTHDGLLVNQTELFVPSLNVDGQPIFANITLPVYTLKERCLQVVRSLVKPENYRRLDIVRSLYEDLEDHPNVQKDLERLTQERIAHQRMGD
Chain of NanoLuc VHL fusion protein (Q15370 whole entry partner, looked up, the tested form may be a part): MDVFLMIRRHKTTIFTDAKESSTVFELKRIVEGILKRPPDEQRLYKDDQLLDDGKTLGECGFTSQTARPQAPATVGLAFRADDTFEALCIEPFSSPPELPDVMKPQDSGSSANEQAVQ
Chain of NanoLuc VHL fusion protein (Q15369 whole entry partner, looked up, the tested form may be a part): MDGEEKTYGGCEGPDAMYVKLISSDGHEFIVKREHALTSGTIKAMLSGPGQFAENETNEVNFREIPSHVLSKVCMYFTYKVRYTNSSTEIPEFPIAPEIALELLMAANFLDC
(In general: BRET reads energy transfer from a luciferase to a nearby fluorophore.)

Bounds are passed on as bounds.

Chain of VHL co-expressed with Elongins B and C (P40337 whole entry, looked up): as the sequence (P40337 whole entry, looked up, the tested form may be a part) above
Chain of VHL co-expressed with Elongins B and C (Q15370 whole entry partner, looked up): as the sequence (Q15370 whole entry partner, looked up, the tested form may be a part) above
Chain of VHL co-expressed with Elongins B and C (Q15369 whole entry partner, looked up): as the sequence (Q15369 whole entry partner, looked up, the tested form may be a part) above
Chain of VHL Elongin B/C complex (P40337 whole entry, looked up): as the sequence (P40337 whole entry, looked up, the tested form may be a part) above
Chain of VHL Elongin B/C complex (Q15370 whole entry partner, looked up): as the sequence (Q15370 whole entry partner, looked up, the tested form may be a part) above
Chain of VHL Elongin B/C complex (Q15369 whole entry partner, looked up): as the sequence (Q15369 whole entry partner, looked up, the tested form may be a part) above

A word on the Kd: it is the equilibrium constant for the complex coming apart. A high value points to weaker binding. As usually defined, the IC50 is the concentration that gives 50% inhibition. Read a low IC50 as greater potency in that assay. Compound `CC(=O)N1CCCCC1C(=O)N1C[C@H](O)CC1C1=NC(=O)[C@](C)(c2ccc(-c3scnc3C)cc2)N1` (single isomer, unassigned) [Example 124.1] had a Kd in assay [1] of at least 150 µM. Moreover, the IC50 on VHL Elongin B/C complex is at least 400 µM; in assay [2], 100 µM.

`CC(=O)N1CCCCC1C(=O)N1C[C@H](O)CC1C1=NC(=O)[C@](C)(c2ccc(-c3scnc3C)cc2)N1` (single isomer, unassigned) [Example 124.2] had a Kd in assay [1] of 10.1 µM. For the same compound, the IC50 worked out at 32.9 µM on VHL Elongin B/C complex and 54.6 µM in assay [2].

For the compound `CC(=O)N1CCCCC1C(=O)N1C[C@H](O)CC1C1=NC(=O)[C@](C)(c2ccc(-c3scnc3C)cc2)N1` (single isomer, unassigned) [Example 124.3], the Kd in assay [1] is at least 150 µM. In addition, the IC50 on VHL Elongin B/C complex is at least 400 µM; in assay [2], 100 µM.

As for `CC(=O)N1CCCCC1C(=O)N1C[C@H](O)CC1C1=NC(=O)[C@](C)(c2ccc(-c3scnc3C)cc2)N1` (single isomer, unassigned) [Example 124.4], the Kd in assay [1] was at least 150 µM. Also, the IC50 on VHL Elongin B/C complex is at least 400 µM; in assay [2], 100 µM.

`Cc1ncsc1-c1ccc([C@]2(C)NC(C3C[C@@H](O)CN3C(=O)C3N(S(C)(=O)=O)CCC3(C)C)=NC2=O)cc1` (single isomer, unassigned) [Example 125.1] yielded a Kd in assay [1] of 14.7 µM. For the same compound, the IC50 on VHL Elongin B/C complex amounted to 179 µM; in assay [2], 100 µM.

`Cc1ncsc1-c1ccc([C@]2(C)NC(C3C[C@@H](O)CN3C(=O)C3N(S(C)(=O)=O)CCC3(C)C)=NC2=O)cc1` (single isomer, unassigned) [Example 125.2] registered a Kd in assay [1] of at least 150 µM. The IC50 is at least 400 µM on VHL Elongin B/C complex and 100 µM in assay [2].

The compound `Cc1ncsc1-c1ccc([C@]2(C)NC(C3C[C@@H](O)CN3C(=O)C3N(S(C)(=O)=O)CCC3(C)C)=NC2=O)cc1` (single isomer, unassigned) [Example 125.3] displayed a Kd in assay [1] of at least 150 µM. Further, the results for the IC50 (at VHL Elongin B/C complex; in assay [2]) were at least 400 µM and 100 µM, respectively.

For the compound `Cc1ncsc1-c1ccc([C@]2(C)NC(C3C[C@@H](O)CN3C(=O)C3N(S(C)(=O)=O)CCC3(C)C)=NC2=O)cc1` (single isomer, unassigned) [Example 125.4], the Kd in assay [1] was at least 150 µM. Moreover, the IC50 on VHL Elongin B/C complex was at least 400 µM; in assay [2], 100 µM.

For `Cc1cc([C@H](C(=O)N2C[C@H](O)C[C@H]2C2=NOC(C)(c3ccccc3)N2)C(C)C)on1` (single isomer, unassigned) [Example 128.3], the Kd in assay [1] was determined as 5.7 µM. Moreover, the IC50 was 33.6 µM at VHL Elongin B/C complex and 10.7 µM in assay [2].

For `Cc1cc([C@H](C(=O)N2C[C@H](O)C[C@H]2C2=NOC(C)(c3ccccc3)N2)C(C)C)on1` (single isomer, unassigned) [Example 128.4], the affinity in assay [1], expressed as Kd, was 7.5 µM. The IC50 at VHL Elongin B/C complex came to 17.3 µM; in assay [2] it was 24.5 µM.

As to `Cc1cc([C@@H](C(=O)N2C[C@H](O)C[C@H]2C2=NOC(C)(c3ccc(-c4scnc4C)cc3)N2)C(C)C)on1` (single isomer, unassigned) [Example 129.1], the dissociation constant (Kd) in assay [1] worked out at 48.1 µM. Moreover, the IC50 at VHL Elongin B/C complex came to 79 µM; in assay [2], 100 µM.

Regarding `Cc1cc([C@@H](C(=O)N2C[C@H](O)C[C@H]2C2=NOC(C)(c3ccc(-c4scnc4C)cc3)N2)C(C)C)on1` (single isomer, unassigned) [Example 129.2], binding in assay [1] was put at a Kd of 57 µM. Moreover, the IC50 amounted to 58.4 µM on VHL Elongin B/C complex and 77.9 µM in assay [2].

As for `Cc1cc([C@H](C(=O)N2C[C@H](O)C[C@H]2C2=NOC(C)(c3ccc(-c4scnc4C)cc3)N2)C(C)C)on1` (single isomer, unassigned) [Example 129.3], the dissociation constant (Kd) in assay [1] turned out to be 0.0293 µM. For the same compound, the IC50 on VHL Elongin B/C complex was determined as 0.418 µM; in assay [2], 0.304 µM.

In assay [1], `Cc1cc([C@H](C(=O)N2C[C@H](O)C[C@H]2C2=NOC(C)(c3ccc(-c4scnc4C)cc3)N2)C(C)C)on1` (single isomer, unassigned) [Example 129.4] returned a Kd of 0.0438 µM. Besides, the IC50 turned out to be 0.202 µM on VHL Elongin B/C complex and 0.239 µM in assay [2].

Consider `Cc1cc([C@@H](C(=O)N2C[C@H](O)C[C@H]2C2=NOC3(CCc4ccccc43)N2)C(C)C)on1` (single isomer, unassigned) [Example 130.1], for which binding in assay [1] was put at a Kd of 83 µM. Moreover, the IC50 at VHL Elongin B/C complex worked out at 96.1 µM; in assay [2] it was 100 µM.

In assay [1], `Cc1cc([C@@H](C(=O)N2C[C@H](O)C[C@H]2C2=NOC3(CCc4ccccc43)N2)C(C)C)on1` (single isomer, unassigned) [Example 130.2] returned a dissociation constant (Kd) of 121 µM. The IC50 was 362 µM on VHL Elongin B/C complex and 100 µM in assay [2].

In assay [1], `Cc1cc([C@H](C(=O)N2C[C@H](O)C[C@H]2C2=NOC3(CCc4ccccc43)N2)C(C)C)on1` (single isomer, unassigned) [Example 130.3] came in with a Kd of 4.69 µM. For the same compound, the values for the IC50 (at VHL Elongin B/C complex; in assay [2]) were 17.6 µM and 16.2 µM, respectively.

Take `Cc1cc([C@H](C(=O)N2C[C@H](O)C[C@H]2C2=NOC3(CCc4ccccc43)N2)C(C)C)on1` (single isomer, unassigned) [Example 130.4]: the Kd in assay [1] amounted to 4.24 µM. For the same compound, the IC50 on VHL Elongin B/C complex was found to be 17.5 µM; in assay [2], 34.5 µM.

The compound `Cc1cc([C@@H](C(=O)N2C[C@H](O)C[C@H]2C2=NOC(c3ccc(Br)cc3)(C(F)(F)F)N2)C(C)C)on1` (single isomer, unassigned) [Example 133.1] yielded a Kd in assay [1] of at least 150 µM. The IC50 at VHL Elongin B/C complex was at least 400 µM; in assay [2], 100 µM.

On to `Cc1cc([C@H](C(=O)N2C[C@H](O)C[C@H]2C2=NOC(c3ccc(Br)cc3)(C(F)(F)F)N2)C(C)C)on1` (single isomer, unassigned) [Example 133.3], for which the Kd in assay [1] came out at 36.3 µM. The IC50 at VHL Elongin B/C complex worked out at 34.4 µM; in assay [2] it was 22.6 µM.

In assay [1], `Cc1cc([C@H](C(=O)N2C[C@H](O)C[C@H]2C2=NOC(c3ccc(Br)cc3)(C(F)(F)F)N2)C(C)C)on1` (single isomer, unassigned) [Example 133.4] registered a dissociation constant (Kd) of 17.4 µM. The results for the IC50 (on VHL Elongin B/C complex; in assay [2]) were 54.9 µM and 52.3 µM, respectively.

The compound `Cc1cc(C(C(=O)N2C[C@H](O)C[C@H]2C2=NN(CC(F)(F)F)C(C)(C)N2)C(C)C)on1` (single isomer, unassigned) [Example 134.1] came in with a Kd in assay [1] of at least 150 µM. Besides, the IC50 on VHL Elongin B/C complex is at least 400 µM; in assay [2], 100 µM.

Consider `Cc1cc(C(C(=O)N2C[C@H](O)C[C@H]2C2=NN(CC(F)(F)F)C(C)(C)N2)C(C)C)on1` (single isomer, unassigned) [Example 134.2], for which binding in assay [1] was put at a Kd of 57.4 µM. Moreover, the IC50 turned out to be 48.2 µM on VHL Elongin B/C complex and 41.3 µM in assay [2].

Regarding `Cc1cc(C(C(=O)N2C[C@H](O)C[C@H]2C2=NN(c3ccccc3)C(C)(C)N2)C(C)C)on1` (single isomer, unassigned) [Example 135.1], the Kd in assay [1] is at least 150 µM. Also, the results for the IC50 (on VHL Elongin B/C complex; in assay [2]) were at least 400 µM and 100 µM, respectively.

Take `Cc1cc(C(C(=O)N2C[C@H](O)C[C@H]2C2=NN(c3ccccc3)C(C)(C)N2)C(C)C)on1` (single isomer, unassigned) [Example 135.2]: binding in assay [1] was put at a Kd of 6.55 µM. The IC50 on VHL Elongin B/C complex was 9.32 µM; in assay [2] it was 5.67 µM.

Regarding `CC/C(=C(\c1ccc(O)cc1)c1ccc(OCCN(C)C(=O)CCCOCCOc2cc(C(C(=O)N3C[C@H](O)CC3C3=NC(=O)[C@](C)(c4ccc(-c5scnc5C)cc4)N3)C(C)C)on2)cc1)c1ccccc1` (single isomer, unassigned) [Example 1003.1], in assay [1], binding was characterised by a dissociation constant (Kd) of 67.1 µM. For the same compound, the IC50 at VHL Elongin B/C complex is at least 400 µM; in assay [2], at least 100 µM.

Regarding `CC/C(=C(\c1ccc(O)cc1)c1ccc(OCCN(C)C(=O)CCCOCCOc2cc(C(C(=O)N3C[C@H](O)CC3C3=NC(=O)[C@](C)(c4ccc(-c5scnc5C)cc4)N3)C(C)C)on2)cc1)c1ccccc1` (single isomer, unassigned) [Example 1003.2], the dissociation constant (Kd) in assay [1] was found to be 67.1 µM. Besides, the IC50 on VHL Elongin B/C complex is at least 400 µM; in assay [2], at least 100 µM.

As to `CC/C(=C(\c1ccc(O)cc1)c1ccc(OCCN(C)C(=O)CCCOCCOc2cc(C(C(=O)N3C[C@H](O)CC3C3=NC(=O)[C@](C)(c4ccc(-c5scnc5C)cc4)N3)C(C)C)on2)cc1)c1ccccc1` (single isomer, unassigned) [Example 1003.3], the Kd in assay [1] stood at 67.1 µM. Further, the IC50 on VHL Elongin B/C complex is 30.4 µM; in assay [2], 51.6 µM.

For the compound `CC/C(=C(\c1ccc(O)cc1)c1ccc(OCCN(C)C(=O)CCCOCCOc2cc(C(C(=O)N3C[C@H](O)CC3C3=NC(=O)[C@](C)(c4ccc(-c5scnc5C)cc4)N3)C(C)C)on2)cc1)c1ccccc1` (single isomer, unassigned) [Example 1003.4], binding in assay [1] was put at a Kd of 67.1 µM. Also, the IC50 (on VHL Elongin B/C complex; in assay [2]) was at least 100 µM in each case.

In turn, `Cc1cc([C@H](C(=O)N2C[C@H](O)C[C@H]2C2=NOC(C)(C)N2)C(C)C)on1` [Example 126.1, (R)-1-((2S,4R)-2-(5,5-dimethyl-4,5-dihydro-1,2,4-oxadiazol-3-yl)-4-hydroxypyrrolidin-1-yl)-3-methyl-2-(3-methylisoxazol-5-yl)butan-1-one] gave an equilibrium dissociation constant (Kd) in assay [1] of 12.8 µM. For the same compound, the half-inhibitory concentration (IC50) at VHL Elongin B/C complex was 31.4 µM; in assay [2], 45.4 µM.
